# B1: TRACP 5b (Homo sapiens) (protein)
# chain: ATPALRFVAVGDWGGVPNAPFHTAREMANAKEIARTVQILGADFILSLGDNFYFTGVQDINDKRFQETFEDVFSDRSLRKVPWYVLAGNHDHLGNVSAQIAYSKISKRWNFPSPFYRLHFKIPQTNVSVAIFMLDTVTLCGNSDDFLSQQPERPRDVKLARTQLSWLKKQLAAAREDYVLVAGHYPVWSIAEHGPTHCLVKQLRPLLATYGVTAYLCGHDHNLQYLQDENGVGYVLSGAGNFMDPSKRHQRKVPNGYLRFHYGTEDSLGGFAYVEISSKEMTVTYIEASGKSLFKTRLPRRARP
# B2: TRACP 5a (Homo sapiens) (protein)
# chain: B1 chain
# notes: TRACP 5a derived from human serum and eluted from a HiTrap Heparin HP column; from tissue; host or cells: human serum, heparin column fraction
# How the values were obtained:
# TRACP 5b [1] = target: T1, TRACP 5b (Homo sapiens, UniProt P13686); settings: pH 5.8; according to Clin. Chem., 47(1), 74-80; cited from earlier work
# T1 sequence (P13686 22-325): B1 chain
# TRACP 5a [2] = target: T2, TRACP 5a (Homo sapiens, UniProt P13686); settings: pH 5.2; according to Clin. Chem., 47(1), 74-80; cited from earlier work
# T2 construct: TRACP 5a derived from human serum and eluted from a HiTrap Heparin HP column; from tissue; host or cells: human serum, heparin column fraction
# T2 sequence (P13686 22-325): B1 chain
# TRACP 5a [3] = target: T2, TRACP 5a; experiment: Enzymatic activity of TRACP 5a bound to immobilized anti-TRACP 5b antibody plate, end-point absorbance; type: biochemical
# Description: (§1) The pH of a buffer solution containing a substrate CNPP was varied from 5.6 to 6.8 and the activity of TRACP 5b and TRACP 5a for this substrate was assayed. This substrate buffer solution had the following composition: CNPP 5 mM, Mes 0.1 M and sodium tartrate 40 mM. Its pH was adjusted to values varying from 5.6 to 6.8 by steps of 0.2. TRACP 5b and TRACP 5a used as samples were prepared by separating human serum by the use of a Heparin column and concentrating a fraction corresponding to a peak due to each of TRACP 5a and TRACP 5b. As TRACP 5a, there was used a sample having such a concentration that its absorbance was 0.8 at pH 5.6 (the optimum for TRACP 5a). As TRACP 5b, there was used a sample having such a concentration that its absorbance was 0.8 at pH 6.4 (the optimum for TRACP 5b). As to a method for the assay, a plate having an anti-TRACP 5b antibody Trk27 immobilized thereon was used and 100 μl of each sample was added to each well and stirred with shaking at room temperature for 1 hour. Then, the reaction solution was discarded and each well was washed three times with 200 μl of Tris buffer containing 0.05% Tween 20. Thereafter, 100 μl of the substrate buffer solution was added to each well and shaken for 30 seconds, followed by incubation in an incubator at 37° C. for 1 hour. Then, 50 μl of 0.2N NaOH was added to each well to terminate the enzyme reaction and the absorbance of the reaction solution was measured with a microtiter plate reader. Under such conditions, the optimum pH for TRACP 5b was about 6.4 and that for TRACP 5a was 5.6.
# (§2) Absorbance values due to the reaction of a buffer solution containing a substrate CNPP with each of TRACP 5a and TRACP 5b at pHs 6.2, 6.4, 6.6 and 6.8 were compared with results obtained in a comparative example using a buffer solution (pH 6.1) containing, as a substrate, PNPP that is considered suitable for the assay of TRACP 5b. According to the method disclosed in Japanese Patent Application Kohyo No. 2002-510050, the composition of this PNPP substrate buffer solution was as follows: PNPP 8 mM, sodium acetate 0.1M, sodium tartrate 40 mM, pH 6.1. As a sample of TRACP 5b, the same sample as in Example 1 was used. As a sample of TRACP 5a, a sample was used which had been prepared so that in the comparative example (PNPP was used at pH 6.1), a value for TRACP 5a might be one-tenth that for TRACP 5b according to the data disclosed in Japanese Patent Application Kohyo No. 2002-510050. The same assay procedure as in Example 1 was carried out and absorbance was used as an indication of the enzymatic activity.
# TRACP 5b [4] = experiment: Enzymatic activity of TRACP 5b bound to immobilized anti-TRACP 5b antibody plate, end-point absorbance; type: biochemical, human
# Description: as §1, §2
# TRACP 5b [5] = experiment: as above; type: biochemical, human; settings: pH 6.9
# [6] = substrate: O=[N+]([O-])c1ccc(OP(=O)(O)O)c(Cl)c1; experiment: Km measurement of substrate with TRACP 5b; type: biochemical, human; settings: other: pH 6.4
# Description: (§3) In order to investigate the difference between TRACP 5b and TRACP 5a in reactivity with 2-chloro-4-nitrophenylphosphoric acid (CNPP), Km for each of them was measured.
# (§4) That is, for the assay of TRACP 5b, CNPP used in the present invention is more advantageous than PNPP from the viewpoint of affinity and specificity.
# [7] = substrate: O=[N+]([O-])c1ccc(OP(=O)(O)O)c(Cl)c1; experiment: Km measurement of substrate with TRACP 5a; type: biochemical, human; settings: other: pH 5.6
# Description: as §3, §4
# [8] = pH 6.1, PNPP 8 mM, sodium acetate 0.1M, sodium tartrate 40 mM
molecule,measurement,setting,value
"O=[N+]([O-])c1ccc(OP(=O)(O)O)cc1 [PNPP, p-nitrophenylphosphoric acid, reference compound]",Km,TRACP 5b [1],7000 µM
same,Km,TRACP 5a [2],1900 µM
same,"absorbance (enzymatic activity), sample TRACP 5a","TRACP 5a [3]; pH 6.1, PNPP 8 mM, sodium acetate 0.1M, sodium tartrate 40 mM, 5a sample prepared to give one-tenth of 5b value",0.098
same,TRACP 5b/5a ratio,TRACP 5b [4]; [8],10
same,"absorbance (enzymatic activity), sample TRACP 5b",TRACP 5b [4]; [8],0.981
"O=[N+]([O-])c1ccc(OP(=O)(O)O)c(Cl)c1 [CNPP, 2-chloro-4-nitrophenylphosphoric acid]",TRACP 5b/5a ratio,TRACP 5b [5],16
same,"absorbance (enzymatic activity), sample TRACP 5b",TRACP 5b [5],0.401
same,optimum pH for TRACP 5a,"TRACP 5a [3]; CNPP 5 mM, Mes 0.1 M, sodium tartrate 40 mM, pH 5.6 to 6.8, 37° C. 1 hour",5.6
same,"absorbance (enzymatic activity), sample TRACP 5a",TRACP 5a [3]; pH 6.2,0.062
same,"absorbance (enzymatic activity), sample TRACP 5a",TRACP 5a [3]; pH 6.4,0.047
same,"absorbance (enzymatic activity), sample TRACP 5a",TRACP 5a [3]; pH 6.6,0.038
same,"absorbance (enzymatic activity), sample TRACP 5a",TRACP 5a [3]; pH 6.9,0.025
same,TRACP 5b/5a ratio,TRACP 5b [4]; pH 6.2,13
same,"absorbance (enzymatic activity), sample TRACP 5b",TRACP 5b [4]; pH 6.2,0.802
same,TRACP 5b/5a ratio,TRACP 5b [4]; pH 6.4,17
same,"absorbance (enzymatic activity), sample TRACP 5b",TRACP 5b [4]; pH 6.4,0.811
same,TRACP 5b/5a ratio,TRACP 5b [4]; pH 6.6,18
same,"absorbance (enzymatic activity), sample TRACP 5b",TRACP 5b [4]; pH 6.6,0.674
B1,Km,[6],1500 µM
B2,Km,[7],3500 µM
